Assay results published in patent publication US20060178323A1, “Methods for the treatment of chronic pain and compositions therefor” (priority 2002, published 2006).

Test system: mechanical hyperalgesia in the Seltzer model of neuropathic pain in the rat
Assay: Seltzer model, established neuropathic hyperalgesia, repeated administration of Compound A
Format: in vivo
From the text: Two animal models of chronic neuropathic pain may be used that involve some form of peripheral nerve damage. In the Seltzer model (Seltzer et al. (1990) Pain 43: 205-218) rats are anaesthetised and a small incision made mid-way up one thigh (usually the left) to expose the sciatic nerve. The nerve is carefully cleared of surrounding connective tissues at a site near the trochanter just distal to the point at which the posterior biceps semitendinosus nerve branches off the common sciatic nerve. A 7-0 silk suture is inserted into the nerve with a ⅜ curved, reversed-cutting mini-needle, and tightly ligated so that the dorsal ⅓ to ½ of the nerve thickness is held within the ligature. The muscle and skin are closed with sutures and clips and the wound dusted with antibiotic powder. In sham animals the sciatic nerve is exposed but not ligated and the wound closed as in nonsham animals.
In all chronic pain models (inflammatory and neuropathic) mechanical hyperalgesia is assessed by measuring paw withdrawal thresholds of both hindpaws to an increasing pressure stimulus using an Analgesymeter (Ugo-Basile, Milan). Mechanical allodynia is assessed by measuring withdrawal thresholds to non-noxious mechanical stimuli applied with von Frey hairs to the plantar surface of both hindpaws. Thermal hyperalgesia is assessed by measuring withdrawal latencies to a noxious thermal stimulus applied to the underside of each hindpaw. With all models, mechanical hyperalgesia and allodynia and thermal hyperalgesia develop within 1-3 days following surgery and persist for at least 50 days. For the assays described herein, drugs may be applied before and after surgery to assess their effect on the development of hyperalgesia, particularly approximately 14 days following surgery, to determine their ability to reverse established hyperalgesia.
The percentage reversal of hyperalgesia is calculated as follows: [formula] In the experiments disclosed herein, Wistar rats (male) are employed in pain models described above. Rats weigh approximately 120-140 grams at the time of surgery. All surgery is performed under enflurane/O2 inhalation anaesthesia. In all cases the wound is closed after the procedure and the animal allowed to recover. In all pain models employed, after a few days in all but the sham operated animals, a marked mechanical and thermal hyperalgesia and allodynia develops in which there is a lowering of pain threshold and an enhanced reflex withdrawal response of the hind-paw to touch, pressure or thermal stimuli. […] In the majority of animals the toes of the affected hind paw are held together and the foot turned slightly to one side; in some rats the toes are also curled under. The gait of the ligated rats varies, but limping is uncommon. […] The rats tend to be very sensitive to touch and may vocalise. Otherwise the general health an condition of the rats is good.
The effect of Compound A on mechanical hyperalgesia and allodynia is examined in the Seltzer model of neuropathic pain in the rat (Seltzer et al, 1990) as described above. With this model mechanical hyperalgesia and allodynia is induced in the ipsilateral (ligated) hindpaw approximately 1 day following surgery and persists for some weeks. Mechanical hyperalgesia is assessed by measuring paw withdrawal thresholds of both hindpaws to an increasing pressure stimulus using an Analgesymeter (Ugo-Basile, Milan). Mechanical allodynia is assessed by measuring withdrawal thresholds to non-noxious mechanical stimuli applied with von Frey hairs to the plantar surface of both hindpaws.
Inhibition of MMP7 may also reduce established mechanical hyperalgesia. 7 days following ligation ipsilateral paw withdrawal thresholds are reduced to approximately 65 g compared to contralteral readings of approximately 100 g, indicating mechanical hyperalgesia. Compound A (3 and 30 mg/kg) or vehicle (20% cremaphor/water) is then administered orally twice daily for 10 days. […]

CC[C@H](C(=O)NO)[C@H](C(=O)N1CCCC[C@H]1C(=O)NC(C)C)c1ccc(Cl)cc1 [Compound A, (S)-1-[(2S,3S)-2-(4-Chloro-phenyl)-3-hydroxycarbamoyl-pentanoyl]-piperidine-2-carboxylic acid isopropylamide]
ipsilateral paw withdrawal threshold (3 mg/kg orally twice daily for 10 days starting 7 days after ligation, day 3 of study): 67.5 ± 2.5 g
ipsilateral paw withdrawal threshold (3 mg/kg orally twice daily for 10 days starting 7 days after ligation, day 4 of study): 80.0 ± 2.2 g
ipsilateral paw withdrawal threshold (3 mg/kg orally twice daily for 10 days starting 7 days after ligation, day 5 of study): 80.0 ± 3.4 g
ipsilateral paw withdrawal threshold (3 mg/kg orally twice daily for 10 days starting 7 days after ligation, day 6 of study): 80.8 ± 2.4 g
ipsilateral paw withdrawal threshold (3 mg/kg orally twice daily for 10 days starting 7 days after ligation, day 7 of study): 80.8 ± 2.4 g
ipsilateral paw withdrawal threshold (3 mg/kg orally twice daily for 10 days starting 7 days after ligation, day 8 of study): 80.8 ± 2.4 g
ipsilateral paw withdrawal threshold (3 mg/kg orally twice daily for 10 days starting 7 days after ligation, day 9 of study): 75.8 ± 3.5 g
ipsilateral paw withdrawal threshold (3 mg/kg orally twice daily for 10 days starting 7 days after ligation, day 10 of study): 81.7 ± 3.1 g
ipsilateral paw withdrawal threshold (3 mg/kg orally twice daily for 10 days starting 7 days after ligation, day 11 of study): 76.7 ± 2.1 g
ipsilateral paw withdrawal threshold (3 mg/kg orally twice daily for 10 days starting 7 days after ligation, day 12 of study): 78.3 ± 2.5 g
ipsilateral paw withdrawal threshold (3 mg/kg orally twice daily for 10 days starting 7 days after ligation, day 13 of study): 79.2 ± 2.4 g
ipsilateral paw withdrawal threshold (3 mg/kg orally twice daily for 10 days starting 7 days after ligation, day 14 of study): 75.8 ± 3.5 g
ipsilateral paw withdrawal threshold (3 mg/kg orally twice daily for 10 days starting 7 days after ligation, day 15 of study): 76.7 ± 2.5 g
ipsilateral paw withdrawal threshold (3 mg/kg orally twice daily for 10 days starting 7 days after ligation, day 18 of study): 75.8 ± 2.4 g
ipsilateral paw withdrawal threshold (3 mg/kg orally twice daily for 10 days starting 7 days after ligation, day 21 of study): 74.2 ± 1.5 g
ipsilateral paw withdrawal threshold (3 mg/kg orally twice daily for 10 days starting 7 days after ligation, day 23 of study): 70.0 ± 1.8 g
ipsilateral paw withdrawal threshold (3 mg/kg orally twice daily for 10 days starting 7 days after ligation, predose): 65.8 ± 0.8 g
ipsilateral paw withdrawal threshold (30 mg/kg orally twice daily for 10 days starting 7 days after ligation, day 1 of study): 68.3 ± 2.1 g
ipsilateral paw withdrawal threshold (30 mg/kg orally twice daily for 10 days starting 7 days after ligation, day 2 of study): 68.3 ± 1.7 g
ipsilateral paw withdrawal threshold (30 mg/kg orally twice daily for 10 days starting 7 days after ligation, day 3 of study): 71.7 ± 2.1 g
ipsilateral paw withdrawal threshold (30 mg/kg orally twice daily for 10 days starting 7 days after ligation, day 4 of study): 78.3 ± 4.8 g
ipsilateral paw withdrawal threshold (30 mg/kg orally twice daily for 10 days starting 7 days after ligation, day 5 of study): 84.2 ± 2.4 g
ipsilateral paw withdrawal threshold (30 mg/kg orally twice daily for 10 days starting 7 days after ligation, day 6 of study): 84.2 ± 4.4 g
ipsilateral paw withdrawal threshold (30 mg/kg orally twice daily for 10 days starting 7 days after ligation, day 7 of study): 83.3 ± 5.4 g
ipsilateral paw withdrawal threshold (30 mg/kg orally twice daily for 10 days starting 7 days after ligation, day 8 of study): 83.3 ± 2.5 g
ipsilateral paw withdrawal threshold (30 mg/kg orally twice daily for 10 days starting 7 days after ligation, day 9 of study): 79.2 ± 3.0 g
ipsilateral paw withdrawal threshold (30 mg/kg orally twice daily for 10 days starting 7 days after ligation, day 10 of study): 85.0 ± 2.6 g
ipsilateral paw withdrawal threshold (30 mg/kg orally twice daily for 10 days starting 7 days after ligation, day 11 of study): 82.5 ± 3.4 g
ipsilateral paw withdrawal threshold (30 mg/kg orally twice daily for 10 days starting 7 days after ligation, day 12 of study): 80.8 ± 2.4 g
ipsilateral paw withdrawal threshold (30 mg/kg orally twice daily for 10 days starting 7 days after ligation, day 13 of study): 80.0 ± 2.6 g
ipsilateral paw withdrawal threshold (30 mg/kg orally twice daily for 10 days starting 7 days after ligation, day 14 of study): 78.3 ± 1.7 g
ipsilateral paw withdrawal threshold (30 mg/kg orally twice daily for 10 days starting 7 days after ligation, day 15 of study): 78.3 ± 2.5 g
ipsilateral paw withdrawal threshold (30 mg/kg orally twice daily for 10 days starting 7 days after ligation, day 18 of study): 77.5 ± 2.1 g
ipsilateral paw withdrawal threshold (30 mg/kg orally twice daily for 10 days starting 7 days after ligation, day 21 of study): 81.7 ± 2.5 g
ipsilateral paw withdrawal threshold (30 mg/kg orally twice daily for 10 days starting 7 days after ligation, day 23 of study): 77.5 ± 2.1 g
ipsilateral paw withdrawal threshold (30 mg/kg orally twice daily for 10 days starting 7 days after ligation, predose): 66.7 ± 2.1 g
ipsilateral paw withdrawal thresholds compared to vehicle treated animals (after 4 days of drug treatment, 3 and 30 mg/kg orally twice daily): significant increase in ipsilateral paw withdrawal thresholds
persistence of increased thresholds following cessation of compound administration (at the higher dose (30 mg/kg)): up to 2 weeks
